Source: paper PMC11290853, “Cholesterol-dependent dynamic changes in the conformation of the type 1 cholecystokinin receptor affect ligand binding and G protein coupling” (PLOS Biology, 2024)
Positions count from the first letter of the chain named.

What was measured:
[1] = target: T1, CCK1R(Y140A) (Homo sapiens, UniProt P32238, Y140A); assay: fluorescence polarization kinetic assay, CCK1R(Y140A); assay type: binding
T1 construct: expressed in transfected cells; some KO cells re-transfected with Galphaq or Galpha11), receptor-enriched membranes
T1 sequence (P32238 1-428 Y140A): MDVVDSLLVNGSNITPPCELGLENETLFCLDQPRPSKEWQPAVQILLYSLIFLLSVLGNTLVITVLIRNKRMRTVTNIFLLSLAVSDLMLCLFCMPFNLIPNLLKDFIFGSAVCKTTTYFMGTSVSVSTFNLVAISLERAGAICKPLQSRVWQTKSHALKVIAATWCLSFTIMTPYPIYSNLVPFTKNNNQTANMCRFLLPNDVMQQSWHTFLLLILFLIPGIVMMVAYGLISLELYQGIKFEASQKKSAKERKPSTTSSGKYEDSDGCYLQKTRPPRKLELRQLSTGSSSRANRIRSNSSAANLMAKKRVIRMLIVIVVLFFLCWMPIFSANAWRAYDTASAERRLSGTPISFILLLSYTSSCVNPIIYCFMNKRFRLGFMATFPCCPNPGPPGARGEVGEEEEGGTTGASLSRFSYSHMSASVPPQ
Description: (§1) Cells were grown either in Ham-F12 medium supplemented with 5% Fetal Clone II or DMEM supplemented with 10% Fetal Clone II with 1% penicillin-streptomycin, 4 mM glutamine mixture in a humidified atmosphere containing 5% CO2 at 37°C.
(§2) This was done in the absence or presence of the non-hydrolyzable GTP analogue, GppNHp, at 10 μM concentration.

[2] = target: T2, CCK1R(sterol 7M) (Homo sapiens, UniProt P32238, F130L/G141S/I216L/I223V/L219F/M226A/S136A); assay: fluorescence polarization kinetic assay, CCK1R(sterol 7M); assay type: binding
T2 construct: expressed in transfected cells
T2 sequence (P32238 1-428 F130L/S136A/G141S/I216L/L219F/I223V/M226A): T1 sequence (P32238 1-428 Y140A) with F130L, S136A, A140Y, G141S, I216L, L219F, I223V, M226A
Description: as §1, §2

[3] = target: T3, CCK2R WT (Homo sapiens, UniProt P32239); assay: fluorescence polarization kinetic assay, CCK2R WT; assay type: binding
T3 construct: expressed in transfected cells; some KO cells re-transfected with Galphaq or Galpha11), receptor-enriched membranes
T3 sequence (P32239 1-447): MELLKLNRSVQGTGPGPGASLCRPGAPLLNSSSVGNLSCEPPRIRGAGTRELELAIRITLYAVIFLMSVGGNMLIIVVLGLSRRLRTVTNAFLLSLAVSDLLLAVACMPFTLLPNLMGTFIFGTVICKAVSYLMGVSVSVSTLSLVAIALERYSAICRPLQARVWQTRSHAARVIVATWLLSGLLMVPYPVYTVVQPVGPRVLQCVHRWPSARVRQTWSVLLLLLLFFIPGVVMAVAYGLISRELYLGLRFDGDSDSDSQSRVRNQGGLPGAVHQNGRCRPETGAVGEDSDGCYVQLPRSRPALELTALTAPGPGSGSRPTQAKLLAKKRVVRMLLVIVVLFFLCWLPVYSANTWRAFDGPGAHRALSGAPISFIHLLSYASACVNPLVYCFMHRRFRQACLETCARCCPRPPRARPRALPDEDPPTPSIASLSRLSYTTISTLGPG
Description: as §1, §2

[4] = target: T4, CCK2R(sterol 7M) (Homo sapiens, UniProt P32239, A149S/A235M/F228L/L143F/L225I/S154G/V232I); assay: fluorescence polarization kinetic assay, CCK2R(sterol 7M); assay type: binding; details: vs CCK2R
T4 construct: expressed in transfected cells
T4 sequence (P32239 1-447 L143F/A149S/S154G/L225I/F228L/V232I/A235M): T3 sequence (P32239 1-447) with L143F, A149S, S154G, L225I, F228L, V232I, A235M
Description: as §1, §2

[5] = target: T5, SRD15-CCK1R cells (Homo sapiens, UniProt P32238); assay: fluorescence polarization kinetic assay, SRD15-CCK1R cells; assay type: binding; details: vs WT CCK1R
T5 construct: expressed in transfected cells; host or cells: SRD15 cells (genetically modified CHO cells with elevated membrane cholesterol)
T5 sequence (P32238 1-428): T1 sequence (P32238 1-428 Y140A) with A140Y
Description: as §1, §2

[6] = tested on: CCK1R(Y140A); assay: photoaffinity labeling, CCK1R(Y140A); assay type: binding, human; details: CNBr cleavage, 10% NuPAGE gel
Description: (§3) After incubation, contents were transferred to a siliconized glass tube and exposed to UV irradiation for 30 min at 4°C with 3,500-Å lamps in a Rayonet photochemical reactor (Southern New England Ultraviolet, Hamden, Connecticut). After photolysis, membrane suspensions were centrifuged at 25,000×g for 5 min and washed twice with ice-cold medium and then resuspended in 30 μl of SDS sample buffer prior to separation on 10% SDS-polyacrylamide gels. Gels were dried and radiolabeled bands were visualized by autoradiography. The apparent molecular weight of radiolabeled receptor fragments was determined from the mobility of Prosieve color protein standards (Cambrex, Rockland, Maine). Receptor radiolabeled bands were excised from the polyacrylamide gel, eluted, and lyophilized, then precipitated with ethanol. Radiochemically pure receptor suspension was cleaved with 2.5 mg of CNBr in 70% formic acid, as described previously. The cleaved receptor products were washed, dried, and resolve in 10% NuPAGE gel with MES running buffer (Invitrogen, Carlsbad, California). The labeled products were identified by autoradiography.

[7] = tested on: CCK1R(sterol 7M); assay: photoaffinity labeling, CCK1R(sterol 7M); assay type: binding, human; details: CNBr cleavage, 10% NuPAGE gel
Description: as §3

[8] = tested on: WT CCK1R; details: large glycosylated CNBr fragment; ref [28],[31]; cited from earlier work
[9] = tested on: CCK2R; details: CNBr fragment; ref [28]; cited from earlier work

Compound | off rate, Gq or G11 transfected ([1]; Gq/11 KO cells) | rate of CCK dissociation (off rate) ([1]; vs WT CCK1R) | kinetics in Gq/11 KO cells ([2]; absence of Gq/11 proteins) | off rate ([2]; vs CCK1R and CCK1R(Y140A)) | ligand dissociation rate, Gq or G11 reintroduced ([3]; Gq/11 KO cells) | rate of CCK dissociation (off rate) ([3]; vs WT CCK1R) | ligand dissociation [4] | rate of CCK dissociation (off rate) [5] | photoaffinity labeling pattern [6] | photoaffinity labeling pattern [7] | site of covalent labeling [8] | site of covalent labeling [9]
CCCC[C@H](NC(=O)[C@H](Cc1ccc(OS(=O)(=O)O)cc1)NC(=O)[C@H](CC(=O)O)NC(=O)CNC(=O)c1ccc(-c2c3ccc(=N)c(S(=O)(=O)O)c-3oc3c(S(=O)(=O)O)c(N)ccc23)c(C(=O)O)c1)C(=O)NCC(=O)N[C@@H](Cc1c[nH]c2ccccc12)C(=O)N[C@@H](CCCC)C(=O)N[C@@H](CC(=O)O)C(=O)N[C@@H](Cc1ccccc1)C(N)=O [alexa^488-Gly-[(Nle^28,31)CCK-26-33]] | transfection of Gq, but not G11, reversed the higher off rate | significantly slower | not altered by absence of Gq/11 proteins | intermediate between that of CCK1R and CCK1R(Y140A) | reintroduction of either Gq or G11 reversed the increased ligand dissociation rate | slower at WT CCK2R relative to WT CCK1R | significantly faster ligand dissociation than CCK2R | significantly slower | – | – | – | –
(^125I-des-amino-Tyr)-Gly-[(Nle^28,31)CCK(26–32)]-Bpa^33 | – | – | – | – | – | – | – | – | labeling of a much smaller and non-glycosylated fragment of the receptor | the same as previously demonstrated for WT CCK1R | Trp39 | Thr119
